Test results reported in PubChem BioAssay (NCI).
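The compound was tested at five concentrations on cells cultured in 96-well plates, with a 48-hour exposure period. Definition used: TGI = concentration required for complete inhibition of growth.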

Key:
Experiment in all cases: inhibition of tumour cell growth, NCI panel, 48 h
786-0 renal = tested on: 786-0 renal
A498 renal = tested on: A498 renal
A549 NSCLC = tested on: A549 NSCLC
ACHN renal = tested on: ACHN renal
BT-549 breast = tested on: BT-549 breast
CAKI-1 renal = tested on: CAKI-1 renal
CCRF-CEM leukemia = tested on: CCRF-CEM leukemia
COLO 205 colon = tested on: COLO 205 colon
DU-145 prostate = tested on: DU-145 prostate
EKVX NSCLC = tested on: EKVX NSCLC
HCC-2998 colon = tested on: HCC-2998 colon
HCT-116 colon = tested on: HCT-116 colon
HCT-15 colon = tested on: HCT-15 colon
HL-60(TB) leukemia = tested on: HL-60(TB) leukemia
HOP-62 NSCLC = tested on: HOP-62 NSCLC
HOP-92 NSCLC = tested on: HOP-92 NSCLC
HS 578T breast = tested on: HS 578T breast
HT29 colon = tested on: HT29 colon
IGROV1 ovarian = tested on: IGROV1 ovarian
K-562 leukemia = tested on: K-562 leukemia
KM12 colon = tested on: KM12 colon
LOX IMVI melanoma = tested on: LOX IMVI melanoma
M14 melanoma = tested on: M14 melanoma
MALME-3M melanoma = tested on: MALME-3M melanoma
MCF7 breast = tested on: MCF7 breast
MDA-MB-231 breast = tested on: MDA-MB-231 breast
MDA-MB-435 = tested on: MDA-MB-435
MDA-N = tested on: MDA-N
MOLT-4 leukemia = tested on: MOLT-4 leukemia
NCI-H226 lung = tested on: NCI-H226 lung
NCI-H23 lung = tested on: NCI-H23 lung
NCI-H460 lung = tested on: NCI-H460 lung
NCI-H522 lung = tested on: NCI-H522 lung
NCI/ADR-RES ovarian = tested on: NCI/ADR-RES ovarian
OVCAR-3 ovarian = tested on: OVCAR-3 ovarian
OVCAR-4 ovarian = tested on: OVCAR-4 ovarian
OVCAR-5 ovarian = tested on: OVCAR-5 ovarian
OVCAR-8 ovarian = tested on: OVCAR-8 ovarian
PC-3 prostate = tested on: PC-3 prostate
RPMI-8226 leukemia = tested on: RPMI-8226 leukemia
SF-268 CNS = tested on: SF-268 CNS
SF-295 CNS = tested on: SF-295 CNS
SF-539 CNS = tested on: SF-539 CNS
SK-MEL-2 melanoma = tested on: SK-MEL-2 melanoma
SK-MEL-28 melanoma = tested on: SK-MEL-28 melanoma
SK-MEL-5 melanoma = tested on: SK-MEL-5 melanoma
SK-OV-3 ovarian = tested on: SK-OV-3 ovarian
SN12C renal = tested on: SN12C renal
SNB-19 CNS = tested on: SNB-19 CNS
SNB-75 CNS = tested on: SNB-75 CNS
SR leukemia = tested on: SR leukemia
SW-620 colon = tested on: SW-620 colon
T-47D breast = tested on: T-47D breast
TK-10 renal = tested on: TK-10 renal
U251 CNS = tested on: U251 CNS
UACC-257 melanoma = tested on: UACC-257 melanoma
UACC-62 melanoma = tested on: UACC-62 melanoma
UO-31 renal = tested on: UO-31 renal
RXF 393 renal = tested on: RXF 393 renal

Measured: TGI

Cc1ccc2c(c1)C(=O)/C(=C\c1ccc(Cl)cc1)CCS2(=O)=O
8.37 µM: SN12C renal
9.41 µM: MDA-MB-231 breast
18.4 µM: SNB-75 CNS
39.1 µM: PC-3 prostate
7.8 µM: SK-MEL-5 melanoma
9.79 µM: MOLT-4 leukemia
5.39 µM: OVCAR-8 ovarian
6.42 µM: MALME-3M melanoma
12.7 µM: BT-549 breast
10.2 µM: NCI-H23 lung | UACC-62 melanoma
5.11 µM: TK-10 renal
8.15 µM: DU-145 prostate
5.52 µM: NCI/ADR-RES ovarian
12.1 µM: SW-620 colon
> 34.4 µM: M14 melanoma
6.54 µM: HT29 colon
3.49 µM: 786-0 renal
23.3 µM: MDA-MB-435
> 36.5 µM: MDA-N
13.5 µM: SK-MEL-28 melanoma
26.4 µM: A498 renal
> 31.5 µM: HS 578T breast
4.52 µM: SF-539 CNS
> 42.5 µM: OVCAR-5 ovarian
3.32 µM: K-562 leukemia
25.3 µM: EKVX NSCLC
7.82 µM: CAKI-1 renal
9.09 µM: U251 CNS
5.01 µM: HCT-15 colon
9.02 µM: UO-31 renal
18.3 µM: HOP-92 NSCLC
> 20.8 µM: CCRF-CEM leukemia
> 58.8 µM: A549 NSCLC
6.82 µM: SNB-19 CNS
7.23 µM: UACC-257 melanoma
3.83 µM: ACHN renal
6.93 µM: OVCAR-4 ovarian
3.28 µM: NCI-H522 lung
14.2 µM: NCI-H226 lung
5.02 µM: NCI-H460 lung
5.55 µM: SR leukemia
14 µM: MCF7 breast
> 47.2 µM: HOP-62 NSCLC
15.6 µM: COLO 205 colon
6.43 µM: LOX IMVI melanoma
9.4 µM: T-47D breast
4.81 µM: RPMI-8226 leukemia
17.9 µM: SF-295 CNS
16.1 µM: SF-268 CNS
19.5 µM: OVCAR-3 ovarian
5.26 µM: HL-60(TB) leukemia
7.56 µM: IGROV1 ovarian
3.51 µM: HCT-116 colon
22.4 µM: SK-OV-3 ovarian
7.71 µM: KM12 colon
5.43 µM: HCC-2998 colon
61 µM: SK-MEL-2 melanoma

OCC1OC(O[C@H]2CN3[C@H](O)[C@@H](O)[C@H](O)[C@H]3C2O)C(O)C(O)C1O (stereo partly drawn)
> 100 µM: 786-0 renal | A498 renal | A549 NSCLC | ACHN renal | BT-549 breast | CAKI-1 renal | CCRF-CEM leukemia | COLO 205 colon | DU-145 prostate | EKVX NSCLC | HCC-2998 colon | HCT-116 colon | HCT-15 colon | HL-60(TB) leukemia | HOP-62 NSCLC | HOP-92 NSCLC | HS 578T breast | HT29 colon | IGROV1 ovarian | K-562 leukemia | KM12 colon | LOX IMVI melanoma | M14 melanoma | MALME-3M melanoma | MCF7 breast | MDA-MB-231 breast | MDA-MB-435 | MDA-N | MOLT-4 leukemia | NCI-H226 lung | NCI-H23 lung | NCI-H460 lung | NCI-H522 lung | NCI/ADR-RES ovarian | OVCAR-3 ovarian | OVCAR-4 ovarian | OVCAR-5 ovarian | OVCAR-8 ovarian | PC-3 prostate | RPMI-8226 leukemia | RXF 393 renal | SF-268 CNS | SF-295 CNS | SF-539 CNS | SK-MEL-2 melanoma | SK-MEL-28 melanoma | SK-MEL-5 melanoma | SK-OV-3 ovarian | SN12C renal | SNB-19 CNS | SR leukemia | SW-620 colon | T-47D breast | TK-10 renal | U251 CNS | UACC-257 melanoma | UACC-62 melanoma | UO-31 renal

Nc1n[nH]c2ccccc12
> 100 µM: 786-0 renal | A498 renal | A549 NSCLC | ACHN renal | BT-549 breast | CAKI-1 renal | CCRF-CEM leukemia | COLO 205 colon | DU-145 prostate | EKVX NSCLC | HCT-116 colon | HCT-15 colon | HL-60(TB) leukemia | HOP-62 NSCLC | HOP-92 NSCLC | HS 578T breast | HT29 colon | IGROV1 ovarian | K-562 leukemia | KM12 colon | LOX IMVI melanoma | M14 melanoma | MALME-3M melanoma | MCF7 breast | MDA-MB-231 breast | MDA-MB-435 | MDA-N | MOLT-4 leukemia | NCI-H226 lung | NCI-H23 lung | NCI-H460 lung | NCI-H522 lung | NCI/ADR-RES ovarian | OVCAR-3 ovarian | OVCAR-4 ovarian | OVCAR-5 ovarian | OVCAR-8 ovarian | PC-3 prostate | RPMI-8226 leukemia | RXF 393 renal | SF-268 CNS | SF-295 CNS | SF-539 CNS | SK-MEL-2 melanoma | SK-MEL-28 melanoma | SK-MEL-5 melanoma | SK-OV-3 ovarian | SN12C renal | SNB-19 CNS | SNB-75 CNS | SR leukemia | SW-620 colon | T-47D breast | TK-10 renal | U251 CNS | UACC-257 melanoma | UACC-62 melanoma | UO-31 renal

O=S1(=O)c2ccccc2NC(=S)N1c1ccccc1
45.3 µM: HOP-92 NSCLC
> 94.5 µM: A498 renal
48.3 µM: SNB-75 CNS
> 100 µM: 786-0 renal | A549 NSCLC | ACHN renal | CAKI-1 renal | CCRF-CEM leukemia | COLO 205 colon | DU-145 prostate | EKVX NSCLC | HCT-116 colon | HCT-15 colon | HL-60(TB) leukemia | HOP-62 NSCLC | HS 578T breast | HT29 colon | IGROV1 ovarian | K-562 leukemia | KM12 colon | M14 melanoma | MALME-3M melanoma | MCF7 breast | MDA-MB-231 breast | MDA-MB-435 | MOLT-4 leukemia | NCI-H226 lung | NCI-H23 lung | NCI-H460 lung | NCI/ADR-RES ovarian | OVCAR-3 ovarian | OVCAR-4 ovarian | OVCAR-5 ovarian | OVCAR-8 ovarian | PC-3 prostate | RPMI-8226 leukemia | RXF 393 renal | SF-268 CNS | SF-295 CNS | SF-539 CNS | SK-MEL-2 melanoma | SK-MEL-28 melanoma | SK-MEL-5 melanoma | SK-OV-3 ovarian | SN12C renal | SNB-19 CNS | SR leukemia | SW-620 colon | T-47D breast | TK-10 renal | U251 CNS | UACC-62 melanoma | UO-31 renal
> 66.1 µM: LOX IMVI melanoma
98.4 µM: HCC-2998 colon
> 89.2 µM: UACC-257 melanoma
99.2 µM: BT-549 breast
> 73.3 µM: NCI-H522 lung
> 80.9 µM: MDA-N
